The record followed here is patent EP2527322A1, “Carbamyl alkylphenyl disulfide derivatives and their therapeutic uses” (NOSCIRA, S.A., priority 2011, dated 2012).

One may read the EC50 as the concentration needed to bring the measured effect to its halfway point.

One test addresses T1, human recombinant GSK3β (Homo sapiens, UniProt P49841).
T1 construct: 6His (N); purchased Millipore (Billerica, MA, USA)
Put plainly: GSK-3β enzymatic assay (Z'-LYTE FRET). The test is classed as biochemical. Particulars: 2 nM enzyme, 12.5 µM ATP, 2 µM substrate peptide, 60 min incubation at room temperature; read-out: GSK3β inhibition average EC50. The method, then: The enzymatic activity of GSK3β was determined with a commercial system based on the Z'-LYTE® technology, available from Invitrogen Life Technologies (Carlsbad, CA, USA), using human recombinant GSK3β (N-terminal 6His-tagged recombinant enzyme with an H350L mutation) from Millipore (Billerica, MA, USA) as the enzyme source. This technology utilizes the fluorescence resonance energy transfer ("FRET") process between fluorescein and coumarin. The assay principle is based on the differential sensitivity of phosphorylated and non-phosphorylated peptide to proteolytic cleavage, which precludes the energy transfer process between the two fluorophores attached to both sides of the cleavage site. […] The assay is performed in 384-well black plates, in a final volume of 10 µl, with 2 nM enzyme concentration in 50 mM Hepes pH 7.5, 50 mM MgCl2, 1 mM EGTA and 0.05% Brij-35, using 12.5 µM ATP and 2 µM substrate peptide. The latter is a synthetic peptide, provided by Invitrogen under the commercial name "Ser/Thr 9 peptide", and it is based upon the sequence of a GSK3β substrate protein (glycogen synthase I) containing Ser-641. The peptide is labeled at both ends with fluorescein and coumarin. The assay is carried out in the presence of different concentrations of the tested compound, at a final 1% (v/v) DMSO concentration. After a 60 min incubation at room temperature, 5 µl of a commercial protease solution (sold by the same vendor in the assay kit) is added and a subsequent 1h incubation at room temperature is performed, before adding 5 µl of a suitable "stop solution", also provided by the vendor in the kit. After that, fluorescence intensity is recorded, monitoring emission at both 445 and 520 nm, upon excitation at 400 nm. An emission ratio is finally calculated, using the quotient among the emission at 445 nm divided by that at 520 nm.
The emission ratio of each tested sample is normalized to that of the control wells, so that for every compound concentration the percentage of inhibition is calculated by using the following equation: %Inhibition = 100⋅(E-S)/(E-B) [formula] wherein "S" is the emission ratio of the sample being considered, "E" is the average emission ratio of wells, including enzyme in the absence of inhibitors, and "B" is the average emission ratio of wells without enzyme. The inhibition values obtained at every compound concentration are finally used to calculate the EC50 of the tested compound, this parameter being the concentration of the compound which causes 50% of inhibition. For that purpose, the data were fitted to a classical 4-parameters isotherm equation using the nonlinear regression function of GraphPad™ Prism 5.0 (GraphPad Software Inc.). Such equation is described below: % Inhibition = L + (H-L)/(1 + (((EC50)/(C)))^n) [formula] wherein "L" is the lower asymptote of the theoretical sigmoidal curve, "H" is the higher asymptote, "C" is the concentration of compound and "n" is the Hill coefficient.

Test [1] relates to phosphorylation at the Ser-396 residue of Tau protein in human neuroblastoma SH-SY5Y cells. As to the kind of experiment: Cellular assay: Tau Ser-396 phosphorylation by ELISA in SH-SY5Y cells. The following applies: 18 h incubation at 37°C, 1% (v/v) DMSO, read-out: pSer396-Tau average EC50. The test is classed as cell-based. On the procedure: The effect of the compound in cells is determined by monitoring the level of phosphorylation at the Ser-396 residue of Tau protein in human neuroblastoma SH-SY5Y cells. Cells are grown in 96-well plates: 30,000 cells per well in a volume of 100 µl of 1:1 MEM:Ham's F12 medium including 10% (v/v) fetal bovine serum, 100 U/ml penicillin, 100 µg/ml streptomycin and 1% (v/v) 100-fold concentrated commercial stock of non-essential aminoacids (Gibco, Carlsbad, CA, USA), and incubated at 37°C during 24 h. Then, the corresponding amount of test compound is added to the wells to reach the desired concentration in 1% (v/v) DMSO. […] 60 µl of this mixture is then placed in an empty 96-well plate and the levels of Ser-396 phosphorylation are determined using a commercial ELISA kit (Biosource, Carlsbad, CA, USA), following manufacturer's instructions. The levels of phosphorylation are expressed as percentage values, after normalizing them to those in untreated cells and those values are used to calculate EC50s, as described above for GSK-3.

T1 sequence (P49841 whole entry): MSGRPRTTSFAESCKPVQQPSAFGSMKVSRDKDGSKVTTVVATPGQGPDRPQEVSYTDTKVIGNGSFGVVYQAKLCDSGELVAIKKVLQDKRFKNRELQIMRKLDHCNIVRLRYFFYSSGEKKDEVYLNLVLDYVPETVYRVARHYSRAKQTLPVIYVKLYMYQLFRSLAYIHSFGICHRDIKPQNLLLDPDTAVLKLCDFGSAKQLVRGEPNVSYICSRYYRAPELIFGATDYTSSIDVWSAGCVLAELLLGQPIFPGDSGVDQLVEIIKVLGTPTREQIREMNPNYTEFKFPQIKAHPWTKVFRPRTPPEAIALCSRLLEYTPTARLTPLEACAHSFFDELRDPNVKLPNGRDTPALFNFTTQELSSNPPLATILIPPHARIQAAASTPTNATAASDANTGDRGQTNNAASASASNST

On to `COC(=O)CN(C)C(=O)SSCc1ccccc1` [Compound 1, [Methyl-(4-phenyl-2,3-dithia-butyryl)-amino]-acetic acid methyl ester], for which the EC50 at human recombinant GSK3β came to 0.29 µM; in test [1] it was 4.2 µM.

Consider `CCOC(=O)CNC(=O)SSCc1ccccc1` [Compound 2, (4-Phenyl-2,3-dithia-butyrylamino)-acetic acid ethyl ester], for which the EC50 on human recombinant GSK3β is 0.46 µM.

Regarding `CCOC(=O)[C@H](Cc1ccccc1)NC(=O)SSCc1ccccc1` [Compound 3, (2S) 3-Phenyl-2-(4-phenyl-2,3-dithia-butyrylamino)-propionic acid ethyl ester], the EC50 on human recombinant GSK3β was found to be 3.9 µM.

For the compound `CCOC(=O)[C@H](Cc1ccc(O)cc1)NC(=O)SSCc1ccccc1` [Compound 4, (2S) 3-(4-Hydroxy-phenyl)-2-(4-phenyl-2,3-dithia-butyrylamino)-propionic acid ethyl ester], the EC50 at human recombinant GSK3β stood at 1.5 µM.

Take `CCOC(=O)[C@H](CC(C)C)NC(=O)SSCc1ccccc1` [Compound 5, (2S) 4-Methyl-2-(4-phenyl-2,3-dithia-butyrylamino)-pentanoic acid ethyl ester]: the EC50 on human recombinant GSK3β was found to be 14 µM.

Consider `CCOC(=O)CCNC(=O)SSCc1ccccc1` [Compound 7, 3-(4-Phenyl-2,3-dithia-butyrylamino)-propionic acid ethyl ester], for which, at human recombinant GSK3β, the EC50 is 0.91 µM.

Regarding `CCOC(=O)CC[C@H](NC(=O)SSCc1ccccc1)C(=O)OCC` [Compound 8, (2S) 2-(4-Phenyl-2,3-dithia-butyrylamino)-pentanedioic acid diethyl ester], the EC50 at human recombinant GSK3β turned out to be 6.8 µM.

In the case of `CCOC(=O)[C@H](C)NC(=O)SSCc1ccccc1` [Compound 9, (2S) 2-(4-Phenyl-2,3-dithia-butyrylamino)-propionic acid ethyl ester], the concentration giving a half-maximal response (EC50) at human recombinant GSK3β was determined as 5.4 µM.

For the compound `COC(=O)CC(NC(=O)SSCc1ccccc1)C(=O)OC` (centres unmarked) [Compound 10], the EC50 at human recombinant GSK3β was determined as 8.7 µM.

With `COC(=O)[C@@H](Cc1c[nH]c2ccccc12)NC(=O)SSCc1ccccc1` [Compound 11], the EC50 on human recombinant GSK3β is 3.3 µM.

Take `CCOC(=O)CN(Cc1ccccc1)C(=O)SSCc1ccccc1` [Compound 12]: at human recombinant GSK3β, the EC50 was found to be 0.26 µM.

For `CCOC(=O)CN(CC(=O)OCC)C(=O)SSCc1ccccc1` [Compound 13], the EC50 at human recombinant GSK3β was found to be 0.22 µM.

Consider `COC(=O)[C@@H]1CCCN1C(=O)SSCc1ccccc1` [Compound 14], for which the EC50 on human recombinant GSK3β amounted to 0.13 µM.

Regarding `COC(=O)C(Cc1ccccc1)NC(=O)SSCc1ccccc1` (centres unmarked) [Compound 16], on human recombinant GSK3β, the EC50 came to 1.3 µM.

As to `O=C(SSCc1ccccc1)N1C(=O)c2ccccc2C1=O` [Compound 17], the half-maximal effective concentration (EC50) at human recombinant GSK3β was found to be 0.47 µM.

Consider `CN(C(=O)SSCc1ccccc1)C(=O)c1ccccc1` [Compound 18], for which the EC50 on human recombinant GSK3β came to 10 µM.
